Patent US4485039A, “Synthetic analogues of α-melanotropin” (University Patents, Inc., priority 1982, dated 1984)
Positions of bridges follow the written chain, without caps; N, C: chain ends. Residues, ends and D or L forms follow the SMILES beside them.

What was measured:
[1] = test system: lizard (Anolis carolinensis) skin melanophores; test: lizard skin bioassay, melanosome dispersion in vitro; type: cell-based
[2] = test system: frog (Rana pipiens) skin melanophores; test: duration of melanosome dispersion, frog skin bioassay; type: cell-based; conditions: 5×10^-10 M, skins rinsed at 60 minutes
Description: The compounds of Example 1 were examined with respect to the duration of their ability to stimulate melanosome dispersion in vitro using the frog (Rana pipiens) skin bioassay.
At time zero, 5×10^-10 M of α-MSH was added to one group of frog skins and 5×10^-10 M of the test compounds were individually added to the second and third groups of skins. At time=60 minutes, skins were rinsed and transferred to Ringers solution.

[3] = cited from earlier work
[4] = test system: adenylate cyclase in Cloudman S-91 mouse melanoma tumors; conditions: [α-32P]ATP conversion to [32P]cAMP
From the text: ATP conversion to [^32 P]cAMP in Cloudman S-91 mouse melanoma tumors as described in Sawyer, et al., Proc. Nat. Acad. Sci. USA, 77, 5754-5758 (1980). [^32 P]cAMP was isolated, purified and detected according to Salomon, et al., Anal. Biochem., 24, pp. 18-26 (1976).

[5] = test system: frog (Rana pipiens) skin melanophores; test: frog skin bioassay, melanosome dispersion in vitro; type: cell-based; conditions: standard frog skin assay
From the text: The Example 1 compounds were examined for their biological effects on melanosome dispersion in vitro using the standard frog (Rana pipiens) skin bioassay and photo-reflectance methods. See, Hadley, et al., Science, 213, pp. 1025-1027 (1981).

Compound: CC(=O)N[C@H]1CSSC[C@@H](C(=O)N[C@@H](CCCCN)C(=O)N2CCC[C@H]2C(=O)N[C@H](C(N)=O)C(C)C)NC(=O)[C@H](Cc2c[nH]c3ccccc23)NC(=O)[C@H](CCCNC(=N)N)NC(=O)[C@H](Cc2ccccc2)NC(=O)[C@H](Cc2cnc[nH]2)NC(=O)[C@H](CCC(=O)O)NC1=O [acetyl-[half-Cys^4, half-Cys^10]-α-MSH4-13NH.sbsb.2] (Ac-CEHFRWCKPV-NH2; disulfide 1-7)
- potency relative to the native hormone [1]: about 1.6 times

Compound: Ac-Ser^1 -Tyr^2 -Ser^3 -Met^4 -Glu^5 -His^6 -Phe^7 -Arg^8 -Trp^9 -Gly^10 -Lys^11 -Pro^12 -Val^13 -NH2 [α-MSH]
- time until activity completely reversed [2]: less than three
- time to complete degradation to a biologically inactive compound (chymotrypsin): ≤ 5 minutes
- half-life in serum [3]: less than 2 minutes

Compound: [Half-Cys^4, half-Cys^10 ]-α-MSH
- potency relative to the native hormone [1]: approximately thirty
- maximal adenylate cyclase activity compared with α-MSH [4]: same maximal adenylate cyclase activity as α-MSH
- potency relative to the native hormone [4]: approximately three

Compound: [half-Cys^5, half-Cys^11 ]-α-MSH
- potency compared with α-MSH (in words) [5]: less potent than α-MSH
- enzymatic stability compared with α-MSH (in words) (chymotrypsin): enzymatically more stable than α-MSH
